Reference: patent US20090082367A1, “TRIAZOLE DERIVATIVE OR A SALT THEREOF” (ASTELLAS PHARMA INC., priority 2006, published 2009)

Legend:
ob/ob male mice [1] = assay: Ob/ob mouse blood glucose-lowering test; format: in vivo; settings: oral 10 mg/kg bid for 9 days, non-fasting, 12 hours after final administration, n=6
Description: (§1) Using 6% 2-hydroxypropyl-β-cyclodextrin as the solvent, a compound liquid was prepared. Blood glucose values were measured under non-fasting using ob/ob male mice of 9 weeks of age (blood glucose value, 300 mg/dl or more), and then arrangement into groups was carried out at random in such a manner that their blood glucose values became uniform. The compound to be tested was repeatedly orally administered (10 mg/kg, bid) twice a day for 9 days, and blood glucose values after 12 hours of the final administration were measured (n=6). The blood glucose value was measured by carrying out colorimetric determination of the amount of glucose (mg/dl) in heparin blood plasma obtained by collecting blood in a heparin-coated glass capillary and subsequently centrifuging it.

[2] = molecular target: T1, human recombinant 11β-HSD2 (Homo sapiens, UniProt P80365); assay: Measuring test of human 11β-HSD2-inhibitory activity (HTRF cortisol detection); format: biochemical; settings: human recombinant 11β-HSD2, 200 nM cortisol, 200 μM NAD, pH 8.0, 37° C. 2 hours
T1 sequence (P80365 1-405): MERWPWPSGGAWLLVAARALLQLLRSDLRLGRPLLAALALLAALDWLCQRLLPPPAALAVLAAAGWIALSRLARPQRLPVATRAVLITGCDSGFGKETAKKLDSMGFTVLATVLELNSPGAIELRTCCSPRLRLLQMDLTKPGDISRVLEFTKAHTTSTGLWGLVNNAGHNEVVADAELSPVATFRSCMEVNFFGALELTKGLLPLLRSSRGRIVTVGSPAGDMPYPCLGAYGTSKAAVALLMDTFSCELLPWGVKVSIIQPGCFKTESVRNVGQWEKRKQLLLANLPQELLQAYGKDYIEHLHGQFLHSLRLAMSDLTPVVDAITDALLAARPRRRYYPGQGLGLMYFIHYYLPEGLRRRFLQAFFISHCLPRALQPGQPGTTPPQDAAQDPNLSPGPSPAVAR
Description: Measurement of the 11β-HSD2 activity was carried out by the same method of the 11β-HSD1 activity measurement, except for the enzyme reaction conditions. The enzyme reaction was carried out by adding the compound to be tested having varied concentration to a reaction liquid consisting of 40 mM Tris-HCl buffer (pH 8.0), 200 nM cortisol, 200 μM nicotinamide adenine dinucleotide (NAD) and human recombinant 11β-HSD2, and then incubating at 37° C. for 2 hours (10 μl/well).
(§2) The measured result was calculated by averaging the values of 3 wells of the same condition. The ratio when DMSO was added instead of the compound to be tested was regarded as 0% and the ratio when 11β-HSD1 or 11β-HSD2 was not added was regarded as 100%, thereby calculating 50% inhibition concentration of the compound to be tested as IC50 of the compound inhibitory activity.

[3] = molecular target: T2, human recombinant 11β-HSD1 (Homo sapiens, UniProt P28845); assay: Measuring test of human 11β-HSD1-inhibitory activity (HTRF cortisol detection); format: biochemical; settings: human recombinant 11β-HSD1, 20 nM cortisone, 40 μM NADPH, pH 6.6, room temperature 1 hour
T2 construct: made in house
Description: The procedure for measuring 11β-HSD1-inhibitory activity is as follows. In this connection, the enzyme reaction and measurement were carried out using a 384-well plate. The enzyme was prepared in accordance with a reference (Walker E. A. et al., Journal of Biological Chemistry, 2001, vol. 276, p. 21343-21350). The reaction was carried out by adding the compound to be tested having varied concentration to a reaction liquid consisting of 10 mM phosphate buffer (pH 6.6), 20 nM cortisone, 40 μM reduced nicotinamide adenine dinucleotide phosphate (NADPH) and human recombinant 11β-HSD1, and then incubating at room temperature for 1 hour (10 μl/well). The compound to be tested was prepared by dissolving in dimethyl sulfoxide (DMSO) to a DMSO concentration of 1% in the reaction liquid. After the enzyme reaction, the enzyme inhibitory activity was measured by detecting cortisol using a homogeneous time-resolved fluorescence method (HTRF). Each of the XL-665-labeled cortisol containing 400 μM carbenoxolone and cryptate-labeled cortisol antibody (CIS bio international) was added in 5 μl/well portions and incubated at room temperature for 2 hours, and then the fluorescence intensity was measured using a fluorophotometer (trade name: Discovery, Perkin Elmer), and the enzyme inhibitory activity was calculated from the fluorescence intensity ratio at two wavelengths (665 nm/620 nm).
as §2

ob/ob male mice [4] = assay: Ob/ob mouse triglyceride-lowering test; format: in vivo; settings: oral 10 mg/kg bid for 9 days, non-fasting, 12 hours after final administration, n=6
Description: as §1, with “Triglyceride” for “Blood glucose”, “age,” for “age (blood glucose value, 300 mg/dl or more),”, “triglyceride” for “blood glucose”, “Triglyceride” for “The blood glucose value”, “triglyceride” for “glucose”

T2 sequence (P28845 whole entry): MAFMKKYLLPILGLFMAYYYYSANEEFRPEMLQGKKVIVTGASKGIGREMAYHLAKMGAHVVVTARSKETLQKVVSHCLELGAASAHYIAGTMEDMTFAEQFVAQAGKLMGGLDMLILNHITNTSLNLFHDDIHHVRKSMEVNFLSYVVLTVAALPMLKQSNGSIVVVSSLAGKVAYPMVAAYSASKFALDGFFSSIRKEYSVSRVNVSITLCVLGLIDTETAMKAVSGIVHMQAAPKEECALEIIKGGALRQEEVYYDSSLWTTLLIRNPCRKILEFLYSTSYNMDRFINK

Row | Compound | IC50 [2] [µM] | IC50 [3] [µM] | blood glucose-lowering action (ob/ob male mice [1]) [%] | triglyceride-lowering action (ob/ob male mice [4]) [%]
1 | CC(C)(c1nnc(C2CC2)n1C1CC1)n1cccc1Cl [Example 9, 3-[1-(2-chloro-1H-pyrrol-1-yl)-1-methylethyl]-4,5-dicyclopropyl-4H-1,2,4-triazole] | > 30 | 0.062 | – | –
2 | CN(C1CCC1)C(C)(C)c1nnc(C2CC2)n1C1CC1 [Example 57] | > 30 | 0.07 | – | –
3 | CC(C)(c1ccc(Br)s1)c1nnc(C2CC2)n1CCc1c(F)cccc1F [Example 167] | > 30 | 0.07 | 24 | –
4 | Fc1ccc(CCn2c(C3CC3)nnc2C2(c3ccccn3)CCC2)cc1 [Example 198] | > 10 | 0.025 | – | –
5 | Brc1ccn(C2(c3nnc(C4CC4)n3C3CC3)CCC2)c1 [Example 213] | > 10 | 0.041 | – | –
6 | Cn1c(C(C)(C)C)nnc1C(C)(C)c1ccc(Cl)s1 [Example 281] | > 3 | 0.0052 | – | –

Further lines, with some results ahead:

Row | IC50 [2] [µM] | IC50 [3] [µM] | Compound | blood glucose-lowering action (ob/ob male mice [1]) [%] | triglyceride-lowering action (ob/ob male mice [4]) [%]
7 | > 3 | 0.0079 | CC(C)(c1ccc(Br)s1)c1nnc(C2CC2)n1C1CC1 [Example 3, 3-[1-(5-bromo-2-thienyl)-1-methylethyl]-4,5-dicyclopropyl-4H-1,2,4-triazole] | 27 | 50
8 | > 10 | 0.012 | CC(C)(c1cc(Br)cs1)c1nnc(C2CC2)n1C1CC1 [Example 77] | – | –
9 | > 10 | 0.034 | CC(C)(c1cccc(Cl)n1)c1nnc(C2CC2)n1CCc1ccccc1 [Example 85] | – | –
10 | > 30 | 0.038 | CC(C)(c1ccccn1)c1nnc(C2CC2)n1CCc1c(F)cccc1F [Example 154] | 21 | –
11 | > 10 | 0.024 | CC(C)(c1ccc(C(F)(F)F)s1)c1nnc(C2CC2)n1C1CC1 [Example 169] | – | –
12 | > 10 | 0.019 | CC(C)(c1ccsc1)c1nnc(C2CC2)n1C1CC1 [Example 172] | 27 | –
13 | > 10 | 0.012 | CC(C)(c1ccsc1)c1nnc(C2CCC2)n1C1CC1 [Example 173] | – | –
14 | > 3 | 0.0047 | CC(C)(c1sc(C(F)(F)F)cc1F)c1nnc(C2CC2)n1C1CC1 [Example 280] | 35 | 42
15 | > 3 | 0.0024 | Cn1c(C2(C)CC2)nnc1C(C)(C)c1ccc(Cl)s1 [Example 283] | – | –
